Laboratory results from PMC6696049, “Pharmacophoric Site Identification and Inhibitor Design for Autotaxin” (Molecules, 2019).

What was measured:
human ENPP2 = human ENPP2 (Homo sapiens, UniProt Q13822); test: In vitro bis-pNPP assay (ATX inhibitory activity); type: biochemical; details: for IC50: in vitro bis-pNPP assay, human ENPP2
Description: We confirmed the ATX inhibitory activity of each compound using bis-pNPP assay. First, 50 μL of 60 mM Tris-HCl (pH 9.0) solution was poured into a 96-well plate and 10 μL of the test compound solution (10% dimethyl sulfoxide) was added. Subsequently, 20 μL of a 3.75 nM human ENPP2 solution (buffer: 50 mM Tris-HCl (pH 8.5), 5 mM CaCl2, 2.5 mM MgCl2, 0.002% Brij 35) and 20 μL of 25 mM bis-pNPP solution (buffer: 50 mM Tris-HCl (pH 9.0)) were added and mixed. Spectrophotometric measurement was carried out at 405 nm at intervals of 10 s while reacting under 37 °C for 10 min.

ATX = target: T1, ATX (Homo sapiens, UniProt Q13822); test: Ex vivo human plasma assay (LPC to LPA, LC-MS/MS); type: biochemical; details: 37 °C, 3 h
T1 construct: from tissue; host or cells: human plasma / serum
Description: First, 5 μL of each test compound solution (10 mM, 100% dimethyl sulfoxide) was diluted 100 times with 495 μL of methanol and then 3 μL of a diluted methanol solution (1% dimethyl sulfoxide) was added to a human or rat serum solution. Next, 12 μL of the test compound solution was mixed into 48 μL of 100% serum in order to make 5 concentrations, and each tube was placed in a constant temperature water bath at 37 °C for 15 min. Subsequently, 10 mg/mL 18: 1 LPC solution (50% ethanol) was diluted to 375 μg/mL with serum and 2 μL was dispensed into each tube to make 50 μL. Each tube was reacted in a constant temperature water bath at 37 °C for 3 h. Then, 100 μL of a 0.5 μM 17:0 LPA solution (Chloroform/Methanol/Water = 65/35/8) was added to the reaction tube. Reaction mixture was centrifuged at 14,000 rpm, at 4 °C for 10 min in a centrifuge. Thereafter, 100 μL of 50% methanol solution was first dissolved in a 96-well polypropylene plate (Agilent Technologies 5042-1385, Santa Clara, CA, USA), and then 50 μL of the supernatant was carefully transferred from the centrifuged tube to the plate. Then, it was covered with a well cap (Thermo 276011, Thermo Fisher Scientific Solutions LLC, Seoul, Korea) and analyzed by LC-MS/MS (Agilent 1260).

| Compound | IC50 (human ENPP2) | potency relative to compound 1 in the bis-pNPP assay (human ENPP2; ratio of bis-pNPP IC50 values, compound 2 vs compound 1) | IC50 (ATX) |
| --- | --- | --- | --- |
| NS(=O)(=O)Nc1ccc(C(=O)NC2CCN(C(=O)OCc3cc(Cl)cc(Cl)c3)CC2)cc1 [Compound 2, (3,5-dichlorophenyl)methyl 4-[4-(sulfamoylamino)benzamido]piperidine-1-carboxylate] | 44.5 nM | five-fold more potent |  |
| NS(=O)(=O)Nc1ccc(NC(=O)c2ccc3c(c2)CN(C(=O)OCc2cc(Cl)cc(Cl)c2)C3)cc1 [Compound 3, (3,5-dichlorophenyl)methyl 5-{[4-(sulfamoylamino)phenyl]carbamoyl}-2,3-dihydro-1H-isoindole-2-carboxylate] | 3.86 nM |  | 827 nM |
| NS(=O)(=O)Nc1ccc(C(=O)Nc2ccc3c(c2)CN(C(=O)OCc2cc(Cl)cc(Cl)c2)C3)cc1 [Compound 4, (3,5-dichlorophenyl)methyl 5-[4-(sulfamoylamino)benzamido]-2,3-dihydro-1H-isoindole-2-carboxylate] | 12.7 nM |  |  |
